Here are results for eight compounds from patent publication US12233130B2, “Covalently-modified steroid acid-peptides having enhanced stability and/or biological activity” (DEFENCE THERAPEUTICS INC., priority 2022, dated 2025).

The nature of series [1]: Stability testing (impurities by HPLC). The following applies: dimer vs monomer. It counts as physicochemical. An excerpt:
GMP synthesis of the CDCA-C-SV40 monomer yielded a white powder and the results of initial stability testing is summarized below:
As shown above, two main impurities were detected by HPLC relating to the reactivity of the free thiol group of the CDCA-C-SV40 monomer, namely impurities resulting from oxidation of the thiol group (Impurity A) and the formation an intermolecular disulfide bond via the thiol groups of two CDCA-C-SV40 monomers, producing a (CDCA-C-SV40)2 dimer (Impurity B).
To attempt to improve stability, the synthesis protocol of CDCA-C-SV40 was modified to produce the conjugate directly in its dimerized form (Impurity B). […] At 25° C., total impurities rose only slightly from 1.6% at Day 0 to 2.1% after 3 months. At 40° C., total impurities rose from 1.6% at Day 0 to 1.7% after 5 days, 2.4% after 10 days, and to 3.7% after 30 days.

The test system of series [2] is 4T1, EL4, CT-26, B16 and E0771 tumor cell lines. Put plainly: Cell death by flow cytometry on five tumor cell lines. Particulars: 95 and 190 μM. It counts as cell-based. On the procedure: (§1) Apoptosis analysis was conducted by flow-cytometry. Briefly, target cells were first treated then washed. Treated cells were then re-suspended in Annexin-V staining buffer prior to staining with Annexin-V and propidium iodine (PI). Fifteen minutes later, cells were washed prior to analysis using BD FACS™ Diva on CANTOII™.
A general note: A flow cytometer gives signals particle by particle.

In series [3] the test system is EL4 lymphoma, B16 melanoma, E0771 breast cancer, CT-26 colon carcinoma, 4T1 breast cancer, MBA-MD-468, H460 and A549 lung cancer cells. Put plainly: Cytotoxicity screen of bile acid-SV40 conjugates (Annexin-V) on eight cancer cell lines. It counts as cell-based. The following applies: 190 μM, all eight tumor cell lines tested. On the procedure:
Annexin-V staining percentage after treatment with different bile acid-SV40 conjugates (190 μM) is shown relative to live cancer cells (i.e., PBS treated cancer cells) by flow cytometry. Cancer cell lines tested were EL4 lymphoma, B16 melanoma, E0771 breast cancer, CT-26 colon carcinoma, 4T1 breast cancer, MBA-MD-468 triple-negative breast cancer, human H460 lung cancer, and human A549 lung cancer. […] SV40 alone was also tested as a negative control.
as §1

Series [4] relates to EL4 cells. Put plainly: Endosomal escape: apoptosis assay with exogenous cytochrome C. The following applies: cytochrome C alone. In kind it is cell-based. On the procedure: Endosomal leakage was assessed using two different approaches; the first strategy utilizes the FRET sensor CCF4-AM, a β-lactamase substrate. Briefly, EL4 cells were treated with 1 μM CCF4-AM for 1 h followed by the addition of 10 mg/ml of β-lactamase in the presence or absence of CA-C-SV40 (at concentration of 190 μM) for 3 h at 37° ° C. The cells were then washed, and fresh media added for an incubation period of 16 h at 37° C. The loss of FRET signal between the coumarin (donor) and fluorescein (acceptor) fluorophores was quantified by flow cytometry. For the apoptosis assay, 10^5 EL4 cells were first supplemented with 10 mg/ml of exogenous rCyt-C for 6 h at 37° C. in the presence or absence of CA-C-SV40 (at a concentration of 190 μM). Once the incubation period completed, the cells were washed with ice cold PBS, then stained for Annexin-V according to manufacturer's instructions prior to analysis using BD FACS Diva on CANTOII.
Cytochrome C is a protein that is normally entrapped in the mitochondria but can be released upon intrinsic signaling known to trigger apoptosis. An experiment was designed where recombinant cytochrome C was added to EL4 cells either alone or in combination with CA-C-SV40 ([…]) (FIG. 3A).

For series [5], the system named is mesenchymal stem cells (MSCs). The experiment in a line: Apoptosis analysis by flow cytometry on normal cells. The following applies: 190 μM. It counts as cell-based. The method, then: as §1
Series [6] has as its system macrophages. The description is as above. In kind it is cell-based. Particulars: 190 μM. The method, then:
as §1

Series [7] relates to EL4 lymphoma cells. Put plainly: Apoptosis analysis by flow cytometry (Annexin-V/PI). It counts as cell-based. The method, then:
as §1

Series [8] has as its system bone marrow-derived dendritic cells (DCs). The experiment in a line: Apoptosis analysis by flow cytometry on normal cells. In kind it is cell-based, mouse. The following applies: 190 μM. The method, then: Mouse bone marrow derived DCs (BMDCs) were generated by flushing the whole marrow from mouse femurs using RPMI™ 1640 supplemented with 10% fetal bovine serum (FBS), 50 U/mL Penicillin-Streptomycin, 2 mM L-glutamine, 10 mM HEPES, 1% MEM Non-essential Amino Acids, 1 mM Sodium Pyruvate, 0.5 mM β-mercaptoethanol. Following red blood cell lysis, cells were then cultured in media supplemented with 50 ng/ml murine recombinant GM-CSF. The media was changed on days 2, 4, 6 and 8. On day 9, the media was replaced to include recombinant murine GM-CSF and LPS from Escherichia coli 0111 (1 ng/mL) to stimulate DC maturation. Mature DCs were assessed by flow cytometry for their surface expression of CD3, CD19, NK1.1, CD11c, CD80, CD86, and I-A^b.
as §1

In series [9] the test system is EL4 lymphoma. The experiment in a line: EL4 tumor model in vivo (tumor growth, survival). Further details: species or system mice. The following applies: highest tested dose (190 μM), every 48 h, 5 injections. On the procedure:
Female C57BL/6 mice (n=10/group) received a SC injection of 5×10^5 EL4 cells at Day 0. […] For all depletion studies, antibodies were injected via the intraperitoneal route at days 0, 3 and 6 at a concentration of 200 μg/injection. Tumor size and animal survival for all of the above listed in vivo studies was followed thereafter using a digital caliber until reaching endpoints (ulceration or a tumor volume ≥1000 mm^3).

Positions of bridges follow the written chain, without caps; N, C: chain ends. Residues, ends and D or L forms follow the SMILES beside them. Chains are numbered I, II in the order given. *: point of attachment. Chenodeoxycholyl = C[C@H](CCC(=O)*)[C@H]1CC[C@H]2[C@@H]3[C@H](O)C[C@@H]4C[C@H](O)CC[C@]4(C)[C@H]3CC[C@]12C; Cholyl = C[C@H](CCC(=O)*)[C@H]1CC[C@H]2[C@@H]3[C@H](O)C[C@@H]4C[C@H](O)CC[C@]4(C)[C@H]3C[C@H](O)[C@]12C

For the compound `CC(C)[C@H](NC(=O)[C@H](CCCCN)NC(=O)[C@H](CCCNC(=N)N)NC(=O)[C@H](CCCCN)NC(=O)[C@H](CCCCN)NC(=O)[C@H](CCCCN)NC(=O)[C@@H]1CCCN1C(=O)CNC(=O)[C@H](Cc1ccc(O)cc1)NC(=O)CNC(=O)[C@H](CSSC[C@H](NC(=O)CC[C@@H](C)[C@H]1CC[C@H]2[C@@H]3[C@H](O)C[C@@H]4C[C@H](O)CC[C@]4(C)[C@H]3CC[C@]12C)C(=O)NCC(=O)N[C@@H](Cc1ccc(O)cc1)C(=O)NCC(=O)N1CCC[C@H]1C(=O)N[C@@H](CCCCN)C(=O)N[C@@H](CCCCN)C(=O)N[C@@H](CCCCN)C(=O)N[C@@H](CCCNC(=N)N)C(=O)N[C@@H](CCCCN)C(=O)N[C@H](C(=O)NCC(=O)NCC(=O)O)C(C)C)NC(=O)CC[C@@H](C)[C@H]1CC[C@H]2[C@@H]3[C@H](O)C[C@@H]4C[C@H](O)CC[C@]4(C)[C@H]3CC[C@]12C)C(=O)NCC(=O)NCC(=O)O` [(CDCA-C-SV40)2] (I: Chenodeoxycholyl-CGYGPKKKRKVGG-OH / II: Chenodeoxycholyl-CGYGPKKKRKVGG-OH; disulfide I:1-II:1), the “stability relative to corresponding monomer” value in series [1] is reported as “markedly higher stability”. For the same compound, in series [2], the cytotoxicity result is “potent cytotoxicity”.
Compound `CC(C)[C@H](NC(=O)[C@H](CCCCN)NC(=O)[C@H](CCCNC(=N)N)NC(=O)[C@H](CCCCN)NC(=O)[C@H](CCCCN)NC(=O)[C@H](CCCCN)NC(=O)[C@@H]1CCCN1C(=O)CNC(=O)[C@H](Cc1ccc(O)cc1)NC(=O)CNC(=O)[C@H](CS)NC(=O)CC[C@@H](C)[C@H]1CC[C@H]2[C@@H]3[C@H](O)C[C@@H]4C[C@H](O)CC[C@]4(C)[C@H]3CC[C@]12C)C(=O)NCC(=O)NCC(=O)O` [CDCA-C-SV40] (Chenodeoxycholyl-CGYGPKKKRKVGG-OH) had a cytotoxic activity in series [3] of 100%.
As for “cytochrome C: recombinant cytochrome C added to EL4 cells as cargo”, in series [4], the cell death result was “did not trigger cell death”.
With `CC(C)[C@H](NC(=O)[C@H](CCCCN)NC(=O)[C@H](CCCNC(=N)N)NC(=O)[C@H](CCCCN)NC(=O)[C@H](CCCCN)NC(=O)[C@H](CCCCN)NC(=O)[C@@H]1CCCN1C(=O)CNC(=O)[C@H](Cc1ccc(O)cc1)NC(=O)CNC(=O)[C@H](CS)NC(=O)CC[C@@H](C)[C@H]1CC[C@H]2[C@@H]3[C@H](O)C[C@@H]4C[C@H](O)CC[C@]4(C)[C@H]3C[C@H](O)[C@]12C)C(=O)NCC(=O)NCC(=O)O` [CA-C-SV40] (Cholyl-CGYGPKKKRKVGG-OH), the “apoptosis in normal or healthy cells” value in [5], in [6] and in [8] was “induce apoptosis” throughout. The “cytotoxicity of cholic acid-NLS conjugates” value in [7] (190 μM, Annexin-V staining) was “notably higher than that of CA-C-GWG-SV40”.
Turning to “SV40 NLS: nuclear localization signal from SV40 large T-antigen (SEQ ID NO: 2), tested alone as negative control”, the cytotoxic activity result in series [7] (separately, at any of the concentrations tested) was “did not exhibit any cytotoxic activity”.
With `CSCC[C@H](NC(=O)[C@H](CS)NC(=O)CC[C@@H](C)[C@H]1CC[C@H]2[C@@H]3[C@H](O)C[C@@H]4C[C@H](O)CC[C@]4(C)[C@H]3C[C@H](O)[C@]12C)C(=O)NCC(=O)N[C@@H](CCCNC(=N)N)C(=O)N[C@H](C(=O)N[C@@H](CCCNC(=N)N)C(=O)N[C@H](C(=O)N[C@@H](CCCCN)C(=O)N[C@H](C(=O)N[C@H](C(=O)N[C@@H](CCCCN)C(=O)N[C@@H](CCCCN)C(=O)N[C@@H](C)C(=O)N[C@@H](C)C(=O)NCC(=O)NCC(=O)O)C(C)C)[C@@H](C)O)[C@@H](C)O)C(C)C` [CA-C-NLS1 RPS17] (Cholyl-CMGRVRTKTVKKAAGG-OH; N-terminus and C-terminus assumed), the tumor growth result in series [9] is on record as “significantly delayed tumor growth”.
`CC[C@H](C)[C@H](NC(=O)[C@H](CCCNC(=N)N)NC(=O)[C@H](CCCCN)NC(=O)[C@H](CCSC)NC(=O)[C@H](CC(C)C)NC(=O)[C@H](Cc1c[nH]cn1)NC(=O)[C@@H](NC(=O)[C@@H](NC(=O)[C@H](Cc1ccc(O)cc1)NC(=O)CNC(=O)[C@H](C)NC(=O)[C@@H](NC(=O)[C@H](CCCCN)NC(=O)[C@H](CC(N)=O)NC(=O)[C@H](CCCNC(=N)N)NC(=O)[C@H](CC(C)C)NC(=O)[C@H](CCCCN)NC(=O)[C@H](CCCCN)NC(=O)[C@H](CO)NC(=O)[C@H](CS)NC(=O)CC[C@@H](C)[C@H]1CC[C@H]2[C@@H]3[C@H](O)C[C@@H]4C[C@H](O)CC[C@]4(C)[C@H]3C[C@H](O)[C@]12C)[C@@H](C)CC)C(C)C)[C@@H](C)O)C(=O)O` [CA-C-NLS3 RPS17] (Cholyl-CSKKLRNKIAGYVTHLMKRI-OH; N-terminus and C-terminus assumed): the tumor growth entry in series [9] was “significantly delayed tumor growth”.
For `CC(=O)N[C@@H](CS)C(=O)O` [NAC, N-acetylcysteine], the “rescue from CA-C-SV40-triggered cell death” value in series [7] (CA-C-SV40 at higher doses (IC100)) is “incomplete but significant blockade”.
